These are literature values, as cited in article PMC7904743, “WIDOCK: a reactive docking protocol for virtual screening of covalent inhibitors” (Journal of Computer-Aided Molecular Design, 2021).

Read-outs that look alike come from different tables or passages of the source.

Series [1] relates to OTUB2. Conditions: experimental actives if % labeling higher than 50%, cited from earlier work.
Series [2] relates to NUDT7. The note with it: protein labeling at 200 μM; experimental actives if % labeling higher than 50%; cited from earlier work.
For series [3] the following is noted: thiol reactivity, cited from earlier work.
The mark [4] stands for this setting: natural log of average rate constant k.
Where [5] appears, read: natural logarithm of average rate constant.
Where [6] appears, read: natural log of average kinetic rate constant.
Setting [7] is: natural log of average rate constant.

For `CC(=O)Nc1ccc(NC(=O)CCl)cc1` [PCM-0102114, CC(=O)Nc1ccc(NC(=O)CCl)cc1], the OTUB2 % labeling in series [1] is listed as 0%. Moreover, the NUDT7 % labeling in series [2] is given as 0%. In addition, the “ln(avg k)” value in series [3] (setting [4]) and in series [3] (setting [5]) was -16.157 throughout.
For `NS(=O)(=O)c1ccccc1NC(=O)CCl` [PCM-0102903, NS(=O)(=O)c1ccccc1NC(=O)CCl], the OTUB2 % labeling in series [1] (OTUB2 protein labeling) was 14%. Moreover, the NUDT7 % labeling in series [2] was 29%. The “ln(avg k)” value in series [3] (setting [6]) and in series [3] (setting [7]) was -14.783 throughout.
In the case of `O=C(CCl)N1CCN(S(=O)(=O)c2ccccc2Cl)CC1` [PCM-0102837, O=C(CCl)N1CCN(S(=O)(=O)c2ccccc2Cl)CC1], the OTUB2 % labeling in series [1] (OTUB2 protein labeling) is recorded as 0%. Further, the NUDT7 % labeling in series [2] is listed as 18%. Moreover, the “ln(avg k)” value in series [3] (setting [6]) and in series [3] (setting [7]) was -15.224 each time.
`Cc1c(Cl)cccc1NC(=O)CCl` [PCM-0102130, Cc1c(Cl)cccc1NC(=O)CCl]: in series [1], the OTUB2 % labeling is 0%. Also, the NUDT7 % labeling in series [2] is reported as 0%. The “ln(avg k)” value in series [3] (setting [4]) and in series [3] (setting [5]) was -15.962 throughout.
Consider `Cc1ccc(S(C)(=O)=O)cc1NC(=O)CCl` [PCM-0102858, Cc1ccc(S(C)(=O)=O)cc1NC(=O)CCl], for which the OTUB2 % labeling in series [1] (OTUB2 protein labeling) is given as 0%. Also, in series [2], the NUDT7 % labeling is 0%. The “ln(avg k)” value in series [3] (setting [6]) and in series [3] (setting [7]) was -16.253 each time.
As for `CC(C)(C)C(NC(=O)CCl)c1cccs1` (stereo not shown) [PCM-0102773, CC(C)(C)C(NC(=O)CCl)c1cccs1], the OTUB2 % labeling in series [1] (OTUB2 protein labeling) is 0%. Also, the NUDT7 % labeling in series [2] was 9%. Also, the “ln(avg k)” value in series [3] (setting [6]) and in series [3] (setting [7]) was -16.457 throughout.
Regarding `C#Cc1cccc(NC(=O)CCl)c1` [PCM-0102735, C#Cc1cccc(NC(=O)CCl)c1], the OTUB2 % labeling in series [1] (OTUB2 protein labeling) is 9%. Also, in series [2], the NUDT7 % labeling was 0%. The “ln(avg k)” value in series [3] (setting [6]) and in series [3] (setting [7]) was -17.384 each time.
Consider `O=C(CCl)Nc1cc(F)ccc1C(=O)O` [PCM-0102247, O=C(CCl)Nc1cc(F)ccc1C(=O)O], for which the OTUB2 % labeling in series [1] is reported as 0%. Moreover, in series [2], the NUDT7 % labeling was 0%. The “ln(avg k)” value in series [3] (setting [4]) and in series [3] (setting [5]) was -16.882 throughout.
Turning to `CN(Cc1cccc(F)c1)C(=O)CCl` [PCM-0102747, CN(Cc1cccc(F)c1)C(=O)CCl], the OTUB2 % labeling in series [1] (OTUB2 protein labeling) is on record as 0%. Besides, in series [2], the NUDT7 % labeling was 0%. For the same compound, the “ln(avg k)” value in series [3] (setting [6]) and in series [3] (setting [7]) was -16.175 in each case.
For `O=C(CCl)Nc1cccc(-c2nnc3n2CCCCC3)c1` [PCM-0102181, O=C(CCl)Nc1cccc(-c2nnc3n2CCCCC3)c1], the OTUB2 % labeling in series [1] was 0%. The NUDT7 % labeling in series [2] was 0%. Moreover, the “ln(avg k)” value in series [3] (setting [4]) and in series [3] (setting [5]) was -15.929 each time.
As for `O=C(CCl)N1CCC(C(=O)N2CCCCCC2)CC1` [PCM-0102781, O=C(CCl)N1CCC(C(=O)N2CCCCCC2)CC1], the OTUB2 % labeling in series [1] (OTUB2 protein labeling) is on record as 0%. Moreover, in series [2], the NUDT7 % labeling is given as 0%. Moreover, the “ln(avg k)” value in series [3] (setting [6]) and in series [3] (setting [7]) was -15.500 in each case.
Take `O=C(CCl)NNC(=O)C1CCC1` [PCM-0103061, O=C(CCl)NNC(=O)C1CCC1]: the OTUB2 % labeling in series [1] (OTUB2 protein labeling) is reported as 14%. Moreover, the NUDT7 % labeling in series [2] is on record as 28%. Moreover, the “ln(avg k)” value in series [3] (setting [6]) and in series [3] (setting [7]) was -15.962 in each case.
As to `O=C(CCl)Nc1ccc(C(F)(F)F)cc1` [PCM-0102323, O=C(CCl)Nc1ccc(C(F)(F)F)cc1], in series [1], the OTUB2 % labeling was 17%. For the same compound, in series [2], the NUDT7 % labeling was 7%. Besides, the “ln(avg k)” value in series [3] (setting [4]) and in series [3] (setting [5]) was -15.637 in each case.
Turning to `Cc1cc(NC(=O)CCl)n(-c2ccccc2C)n1` [PCM-0102699, Cc1cc(NC(=O)CCl)n(-c2ccccc2C)n1], the OTUB2 % labeling in series [1] is on record as 0%. In addition, in series [2], the NUDT7 % labeling is on record as 0%. Besides, the “ln(avg k)” value in series [3] (setting [4]) and in series [3] (setting [5]) was -15.949 in each case.
Regarding `Cc1ccc(C)c(NC(=O)CCl)c1` [PCM-0102398, Cc1ccc(C)c(NC(=O)CCl)c1], the OTUB2 % labeling in series [1] is 0%. In addition, the NUDT7 % labeling in series [2] is 0%. The “ln(avg k)” value in series [3] (setting [4]) and in series [3] (setting [5]) was -16.327 each time.
Regarding `O=C(CCl)N1CCN(S(=O)(=O)c2ccccc2F)CC1` [PCM-0102281, O=C(CCl)N1CCN(S(=O)(=O)c2ccccc2F)CC1], in series [1], the OTUB2 % labeling is reported as 0%. Also, the NUDT7 % labeling in series [2] is 14%. Moreover, the “ln(avg k)” value in series [3] (setting [4]) and in series [3] (setting [5]) was -15.235 throughout.
As for `COC(=O)C1(NC(=O)CCl)CCC(C)CC1` (stereo not shown) [PCM-0102827, COC(=O)C1(NC(=O)CCl)CCC(C)CC1], the OTUB2 % labeling in series [1] (OTUB2 protein labeling) is 0%. In addition, the NUDT7 % labeling in series [2] is 0%. Moreover, the “ln(avg k)” value in series [3] (setting [6]) and in series [3] (setting [7]) was -16.743 throughout.
Take `O=C(CCl)Nc1ccccc1N1CCCC1=O` [PCM-0102375, O=C(CCl)Nc1ccccc1N1CCCC1=O]: in series [1], the OTUB2 % labeling was 13%. In addition, the NUDT7 % labeling in series [2] is given as 0%. In addition, the “ln(avg k)” value in series [3] (setting [4]) and in series [3] (setting [5]) was -16.453 throughout.
With `O=C(CCl)Nc1nc2ccc(F)cc2s1` [PCM-0102294, O=C(CCl)Nc1nc2ccc(F)cc2s1], the OTUB2 % labeling in series [1] was 0%. In addition, the NUDT7 % labeling in series [2] is reported as 89%. Besides, the “ln(avg k)” value in series [3] (setting [4]) and in series [3] (setting [5]) was -15.413 each time.
For `COc1cccc(NC(=O)CCl)c1` [PCM-0102410, COc1cccc(NC(=O)CCl)c1], in series [1], the OTUB2 % labeling is given as 0%. The NUDT7 % labeling in series [2] was 0%. The “ln(avg k)” value in series [3] (setting [4]) and in series [3] (setting [5]) was -15.888 each time.
With `COC(=O)CNC(=O)CCl` [PCM-0102906, COC(=O)CNC(=O)CCl], the OTUB2 % labeling in series [1] (OTUB2 protein labeling) is recorded as 6%. Besides, the NUDT7 % labeling in series [2] was 0%. In addition, the “ln(avg k)” value in series [3] (setting [6]) and in series [3] (setting [7]) was -17.517 each time.
As to `CC(NC(=O)CCl)c1cccc2ccccc12` (stereo not shown) [PCM-0102275, CC(NC(=O)CCl)c1cccc2ccccc12], the OTUB2 % labeling in series [1] was 73%. In addition, in series [2], the NUDT7 % labeling is reported as 32%. The “ln(avg k)” value in series [3] (setting [4]) and in series [3] (setting [5]) was -16.435 throughout.
Consider `O=C(CCl)N1CCN(S(=O)(=O)c2cccs2)CC1` [PCM-0102241, O=C(CCl)N1CCN(S(=O)(=O)c2cccs2)CC1], for which the OTUB2 % labeling in series [1] is 0%. The NUDT7 % labeling in series [2] is recorded as 12%. Moreover, the “ln(avg k)” value in series [3] (setting [4]) and in series [3] (setting [5]) was -15.262 throughout.
As for `O=C(CCl)NNC(=O)C1COc2ccccc2O1` (stereo not shown) [PCM-0102384, O=C(CCl)NNC(=O)C1COc2ccccc2O1], the OTUB2 % labeling in series [1] is listed as 27%. In addition, in series [2], the NUDT7 % labeling was 0%. The “ln(avg k)” value in series [3] (setting [4]) and in series [3] (setting [5]) was -17.088 throughout.
Turning to `CN(Cc1cccc(C(F)(F)F)c1)C(=O)CCl` [PCM-0102987, CN(Cc1cccc(C(F)(F)F)c1)C(=O)CCl], the OTUB2 % labeling in series [1] (OTUB2 protein labeling) is listed as 0%. Moreover, the NUDT7 % labeling in series [2] was 9%. Besides, the “ln(avg k)” value in series [3] (setting [6]) and in series [3] (setting [7]) was -15.786 each time.
As to `CN(CC1CC1)C(=O)CCl` [PCM-0102714, CN(CC1CC1)C(=O)CCl], in series [1], the OTUB2 % labeling was 0%. Also, in series [2], the NUDT7 % labeling is 0%. Further, the “ln(avg k)” value in series [3] (setting [7]) and in series [3] (setting [5]) was -16.302 throughout.
As for `CS(=O)(=O)N1CCN(C(=O)CCl)CC1` [PCM-0102417, CS(=O)(=O)N1CCN(C(=O)CCl)CC1], the OTUB2 % labeling in series [1] is 0%. Also, in series [2], the NUDT7 % labeling is 0%. Further, the “ln(avg k)” value in series [3] (setting [4]) and in series [3] (setting [5]) was -15.539 in each case.
As for `O=C(CCl)Nc1ccc(Cl)c(Cl)c1` [PCM-0102112, O=C(CCl)Nc1ccc(Cl)c(Cl)c1], the OTUB2 % labeling in series [1] is 30%. In series [2], the NUDT7 % labeling is listed as 18%. For the same compound, the “ln(avg k)” value in series [3] (setting [4]) and in series [3] (setting [5]) was -15.433 each time.
Take `O=C(CCl)N1CCN(c2ccccc2Cl)CC1` [PCM-0102297, O=C(CCl)N1CCN(c2ccccc2Cl)CC1]: the OTUB2 % labeling in series [1] is 0%. Besides, in series [2], the NUDT7 % labeling is given as 35%. In addition, the “ln(avg k)” value in series [3] (setting [4]) and in series [3] (setting [5]) was -14.978 throughout.
Consider `Cc1cc([N+](=O)[O-])ccc1NC(=O)CCl` [PCM-0102134, Cc1cc([N+](=O)[O-])ccc1NC(=O)CCl], for which the OTUB2 % labeling in series [1] is recorded as 11%. Besides, the NUDT7 % labeling in series [2] is 10%. The “ln(avg k)” value in series [3] (setting [4]) and in series [3] (setting [5]) was -16.240 throughout.
For the compound `O=C(CCl)Nc1cc2[nH]c(=O)[nH]c2cc1Br` [PCM-0102388, O=C(CCl)Nc1cc2[nH]c(=O)[nH]c2cc1Br], in series [1], the OTUB2 % labeling was 56%. Also, the NUDT7 % labeling in series [2] is 0%. Further, the “ln(avg k)” value in series [3] (setting [4]) and in series [3] (setting [5]) was -15.369 throughout.
As for `Cc1ccc(CN(C)C(=O)CCl)o1` [PCM-0102399, Cc1ccc(CN(C)C(=O)CCl)o1], in series [1], the OTUB2 % labeling is given as 0%. The NUDT7 % labeling in series [2] is recorded as 5%. In addition, the “ln(avg k)” value in series [3] (setting [4]) and in series [3] (setting [5]) was -15.728 in each case.
As for `CCc1cccc(C)c1NC(=O)CCl` [PCM-0102618, CCc1cccc(C)c1NC(=O)CCl], the OTUB2 % labeling in series [1] is 0%. Further, in series [2], the NUDT7 % labeling was 11%. Moreover, the “ln(avg k)” value in series [3] (setting [4]) and in series [3] (setting [5]) was -17.017 each time.
`Cc1cccc(N(C(=O)CCl)C2C=CS(=O)(=O)C2)c1` (stereo not shown) [PCM-0102579, Cc1cccc(N(C(=O)CCl)C2C=CS(=O)(=O)C2)c1]: the OTUB2 % labeling in series [1] is given as 0%. Moreover, the NUDT7 % labeling in series [2] is given as 40%. Moreover, the “ln(avg k)” value in series [3] (setting [4]) and in series [3] (setting [5]) was -15.240 throughout.
